# Results reported in patent US20240059671A1, “TYROSINE KINASE 2 (TYK2) DEGRADATION COMPOUNDS AND METHODS OF USE” (CULLGEN (SHANGHAI), INC., priority 2020, published 2024).
# “Also recorded” adds a separate entry of the source.
# Molecular target: TYK2 (Homo sapiens, UniProt P29597)
# Experiment: TYK2 protein degradation in NOMO-1 cells by immunoblotting
# Format: cell-based
# Parameters: endogenous in cells
# Settings: for TYK2 Degradation (NOMO-1, 10 nM) / TYK2 Degradation (NOMO-1, 100 nM): NOMO-1 cells
# Experimental: NOMO-1 cells were treated with CPD-155, CPD-157, and CPD-158 at 0.1, 1, 10, 100 and 1000 nM concentrations for 16 hours. […] Data shown that CPD-155, CPD-157, and CPD-158 are very potent at the reduction protein levels of TYK2.
# MOLT-4 or NOMO-1 cells were cultured at 37° C. with 5% CO2 in RPMI 1640 Medium supplemented with 10% fetal bovine serum. Cells were authenticated using the short tandem repeat (STR) assays. Mycoplasma test results were negative.
# Cultured cells were washed with cold PBS once and lysed in cold RIPA buffer supplemented with protease inhibitors and phosphatase inhibitors (Beyotime Biotechnology). The solutions were then incubated at 4° C. for 30 minutes with gentle agitation to fully lyse cells. Cell lysates were centrifuged at 13,000 rpm for 10 minutes at 4° C. and pellets were discarded. Total protein concentrations in the lysates were determined by BCA assays (Beyotime Biotechnology). Cell lysates were mixed with Laemmli loading buffer to 1× and heated at 99° C. for 5 min. Proteins were resolved on SDS-PAGE and visualized by chemiluminescence. Images were taken by a ChemiDoc MP Imaging system (Bio-Rad). Protein bands were quantitated using the accompanied software provided by Bio-Rad.
# TYK2, sequence (P29597 whole entry): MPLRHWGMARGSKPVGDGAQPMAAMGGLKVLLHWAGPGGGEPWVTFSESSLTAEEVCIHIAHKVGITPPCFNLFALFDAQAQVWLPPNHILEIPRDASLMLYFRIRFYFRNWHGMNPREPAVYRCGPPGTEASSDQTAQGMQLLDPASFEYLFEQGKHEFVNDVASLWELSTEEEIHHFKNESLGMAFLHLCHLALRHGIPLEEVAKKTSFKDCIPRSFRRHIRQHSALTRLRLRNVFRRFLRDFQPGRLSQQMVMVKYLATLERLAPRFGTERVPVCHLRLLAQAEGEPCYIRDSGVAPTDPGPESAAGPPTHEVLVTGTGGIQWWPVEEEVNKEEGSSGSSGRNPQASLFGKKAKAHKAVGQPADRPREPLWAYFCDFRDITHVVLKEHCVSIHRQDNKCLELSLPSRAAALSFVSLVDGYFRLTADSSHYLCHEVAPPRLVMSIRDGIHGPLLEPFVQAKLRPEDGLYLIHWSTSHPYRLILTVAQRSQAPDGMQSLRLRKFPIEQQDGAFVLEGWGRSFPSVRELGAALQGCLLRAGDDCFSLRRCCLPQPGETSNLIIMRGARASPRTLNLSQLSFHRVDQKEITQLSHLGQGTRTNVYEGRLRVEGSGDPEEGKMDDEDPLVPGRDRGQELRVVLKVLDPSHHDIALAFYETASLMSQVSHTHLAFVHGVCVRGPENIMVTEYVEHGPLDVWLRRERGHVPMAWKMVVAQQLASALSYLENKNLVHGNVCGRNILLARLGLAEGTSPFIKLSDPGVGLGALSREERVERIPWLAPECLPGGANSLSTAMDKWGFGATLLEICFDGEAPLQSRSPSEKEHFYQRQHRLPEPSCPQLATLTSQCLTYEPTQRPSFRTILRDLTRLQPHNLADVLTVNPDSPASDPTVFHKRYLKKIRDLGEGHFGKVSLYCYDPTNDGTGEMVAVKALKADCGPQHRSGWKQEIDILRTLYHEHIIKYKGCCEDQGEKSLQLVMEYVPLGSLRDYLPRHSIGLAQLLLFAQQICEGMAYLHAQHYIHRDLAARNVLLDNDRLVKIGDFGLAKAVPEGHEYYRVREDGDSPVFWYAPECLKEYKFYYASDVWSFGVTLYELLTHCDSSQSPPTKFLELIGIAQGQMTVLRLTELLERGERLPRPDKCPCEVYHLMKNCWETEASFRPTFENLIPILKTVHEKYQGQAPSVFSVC
Compound,"TYK2 Degradation (NOMO-1, 10 nM)","TYK2 Degradation (NOMO-1, 100 nM)","Reduction of TYK2 protein levels over a dose range (FIG. 2) (NOMO-1 cells, 0.1, 1, 10, 100 and 1000 nM, 16 hours)"
"CNC(=O)c1nnc(Nc2ccc(C(=O)NCCCC(=O)N[C@H](C(=O)N3C[C@H](O)C[C@H]3C(=O)N[C@@H](C)c3ccc(-c4scnc4C)cc3)C(C)(C)C)cn2)cc1Nc1cccc(-c2ncn(C)n2)c1OC [CPD-139, 6-((5-((4-(((S)-1-((2S,4R)-4-Hydroxy-2-(((S)-1-(4-(4-methylthiazol-5-yl)phenyl)ethyl)carbamoyl)pyrrolidin-1-yl)-3,3-dimethyl-1-oxobutan-2-yl)amino)-4-oxobutyl)carbamoyl)pyridin-2-yl)amino)-4-((2-methoxy-3-(1-methyl-1H-1,2,4-triazol-3-yl)phenyl)amino)-N-methylpyridazine-3-carboxamide]",C (C: ≤20% TYK2 degradation),A (A: ≥60% TYK2 degradation),
"CNC(=O)c1nnc(Nc2ccc(C(=O)NCCCCCCNc3ccc4c(c3)C(=O)N(C3CCC(=O)NC3=O)C4=O)cn2)cc1Nc1cccc(-c2ncn(C)n2)c1OC (centres unmarked) [CPD-165, 6-((5-((6-((2-(2,6-dioxopiperidin-3-yl)-1,3-dioxoisoindolin-5-yl)amino)hexyl)carbamoyl)pyridin-2-yl)amino)-4-((2-methoxy-3-(1-methyl-1H-1,2,4-triazol-3-yl)phenyl)amino)-N-methylpyridazine-3-carboxamide]",C (C: ≤20% TYK2 degradation),C (C: ≤20% TYK2 degradation),
"CNC(=O)c1nnc(Nc2ccc(C#CC3CCN(C(=O)CCCCCCCCC(=O)N[C@H](C(=O)N4C[C@H](O)C[C@H]4C(=O)N[C@@H](C)c4ccc(-c5scnc5C)cc4)C(C)(C)C)CC3)cn2)cc1Nc1cccc(-c2ncn(C)n2)c1OC [CPD-121, 6-((5-((1-(10-(((S)-1-((2S,4R)-4-hydroxy-2-(((5)-1-(4-(4-methylthiazol-5-yl)phenyl)ethyl)carbamoyl)pyrrolidin-1-yl)-3,3-dimethyl-1-oxobutan-2-yl)amino)-10-oxodecanoyl)piperidin-4-yl)ethynyl)pyridin-2-yl)amino)-4-((2-methoxy-3-(1-methyl-1H-1,2,4-triazol-3-yl)phenyl)amino)-N-methylpyridazine-3-carboxamide]",A (A: ≥60% TYK2 degradation),A (A: ≥60% TYK2 degradation),
"CNC(=O)c1nnc(Nc2ccc(C(=O)NCCCCCCCCNc3ccc4c(c3)C(=O)N(C3CCC(=O)NC3=O)C4=O)cn2)cc1Nc1cccc(-c2ncn(C)n2)c1OC (centres unmarked) [CPD-167, 6-((5-((8-((2-(2,6-dioxopiperidin-3-yl)-1,3-dioxoisoindolin-5-yl)amino)octyl)carbamoyl)pyridin-2-yl)amino)-4-((2-methoxy-3-(1-methyl-1H-1,2,4-triazol-3-yl)phenyl)amino)-N-methylpyridazine-3-carboxamide]",A (A: ≥60% TYK2 degradation),C (C: ≤20% TYK2 degradation),
"CNC(=O)c1nnc(Nc2ccc(N3CCN(C(=O)CCCCCCC(=O)N[C@H](C(=O)N4C[C@H](O)C[C@H]4C(=O)N[C@H]4CCCc5c4cc(C#N)n5C)C(C)(C)C)CC3)cn2)cc1Nc1cccc(-c2ncn(C)n2)c1OC [CDD-173, 6-((5-(4-(8-(((S)-1-((2S,4R)-2-(((S)-2-cyano-1-methyl-4,5,6,7-tetrahydro-1H-indol-4-yl)carbamoyl)-4-hydroxypyrrolidin-1-yl)-3,3-dimethyl-1-oxobutan-2-yl)amino)-8-oxooctanoyl)piperazin-1-yl)pyridin-2-yl)amino)-4-((2-methoxy-3-(1-methyl-1H-1,2,4-triazol-3-yl)phenyl)amino)-N-methylpyridazine-3-carboxamide]",C (C: ≤20% TYK2 degradation),C (C: ≤20% TYK2 degradation),
"CNC(=O)c1nnc(Nc2ccc(C(=O)NCCC(=O)N[C@H](C(=O)N3C[C@H](O)C[C@H]3C(=O)N[C@@H](C)c3ccc(-c4scnc4C)cc3)C(C)(C)C)cn2)cc1Nc1cccc(-c2ncn(C)n2)c1OC [CPD-138, 6-((5-((3-(((S)-1-((2S,4R)-4-Hydroxy-2-(((S)-1-(4-(4-methylthiazol-5-yl)phenyl)ethyl)carbamoyl)pyrrolidin-1-yl)-3,3-dimethyl-1-oxobutan-2-yl)amino)-3-oxopropyl)carbamoyl)pyridin-2-yl)amino)-4-((2-methoxy-3-(1-methyl-1H-1,2,4-triazol-3-yl)phenyl)amino)-N-methylpyridazine-3-carboxamide]",,C (C: ≤20% TYK2 degradation),
"CNC(=O)c1nnc(Nc2ccc(C(=O)NCCOCCNc3ccc4c(c3)C(=O)N(C3CCC(=O)NC3=O)C4=O)cn2)cc1Nc1cccc(-c2ncn(C)n2)c1OC (centres unmarked) [CPD-168, 6-((5-((2-(2-((2-(2,6-dioxopiperidin-3-yl)-1,3-dioxoisoindolin-5-yl)amino)ethoxy)ethyl)carbamoyl)pyridin-2-yl)amino)-4-((2-methoxy-3-(1-methyl-1H-1,2,4-triazol-3-yl)phenyl)amino)-N-methylpyridazine-3-carboxamide]",,C (C: ≤20% TYK2 degradation),
"CNC(=O)c1nnc(Nc2ccc(N3CCN(C(=O)CCCCCCC(=O)N[C@H](C(=O)N4C[C@H](O)C[C@H]4C(=O)N[C@H]4CCCc5[nH]c(=O)c(C)cc54)C(C)(C)C)CC3)cn2)cc1Nc1cccc(-c2ncn(C)n2)c1OC [CDD-174, 6-((5-(4-(8-(((S)-1-((2S,4R)-4-hydroxy-2-(((S)-3-methyl-2-oxo-1,2,5,6,7,8-hexahydroquinolin-5-yl)carbamoyl)pyrrolidin-1-yl)-3,3-dimethyl-1-oxobutan-2-yl)amino)-8-oxooctanoyl)piperazin-1-yl)pyridin-2-yl)amino)-4-((2-methoxy-3-(1-methyl-1H-1,2,4-triazol-3-yl)phenyl)amino)-N-methylpyridazine-3-carboxamide]",C (C: ≤20% TYK2 degradation),C (C: ≤20% TYK2 degradation),
"CNC(=O)c1nnc(Nc2ccc(C#CC3CN(C(=O)CCCCCCCC(=O)N[C@H](C(=O)N4C[C@H](O)C[C@H]4C(=O)N[C@@H](C)c4ccc(-c5scnc5C)cc4)C(C)(C)C)C3)cn2)cc1Nc1cccc(-c2ncn(C)n2)c1OC [CPD-126, 6-((5-((1-(9-(((S)-1-((2S,4R)-4-hydroxy-2-(((S)-1-(4-(4-methylthiazol-5-yl)phenyl)ethyl)carbamoyl)pyrrolidin-1-yl)-3,3-dimethyl-1-oxobutan-2-yl)amino)-9-oxononanoyl)azetidin-3-yl)ethynyl)pyridin-2-yl)amino)-4-((2-methoxy-3-(1-methyl-H-1,2,4-triazol-3-yl)phenyl)amino)-N-methylpyridazine-3-carboxamide]",A (A: ≥60% TYK2 degradation),A (A: ≥60% TYK2 degradation),
"CNC(=O)c1nnc(Nc2ccc(C(=O)NCCCCCCCNc3cccc4c3C(=O)N(C3CCC(=O)NC3=O)C4=O)cn2)cc1Nc1cccc(-c2ncn(C)n2)c1OC (centres unmarked) [CPD-157, 6-((5-((7-((2-(2,6-dioxopiperidin-3-yl)-1,3-dioxoisoindolin-4-yl)amino)heptyl)carbamoyl)pyridin-2-yl)amino)-4-((2-methoxy-3-(1-methyl-1H-1,2,4-triazol-3-yl)phenyl)amino)-N-methylpyridazine-3-carboxamide]",A (A: ≥60% TYK2 degradation),C (C: ≤20% TYK2 degradation),concentration-dependently reduced the TYK2 proteins levels; also recorded: highly potent in reducing TYK2 protein levels
"CNC(=O)c1nnc(Nc2ccc(C#CC3CN(C(=O)CCCCC(=O)N[C@H](C(=O)N4C[C@H](O)C[C@H]4C(=O)N[C@@H](C)c4ccc(-c5scnc5C)cc4)C(C)(C)C)C3)cn2)cc1Nc1cccc(-c2ncn(C)n2)c1OC [CPD-123, 6-((5-((1-(6-(((S)-1-((2S,4R)-4-Hydroxy-2-(((S)-1-(4-(4-methylthiazol-5-yl)phenyl)ethyl)carbamoyl)pyrrolidin-1-yl)-3,3-dimethyl-1-oxobutan-2-yl)amino)-6-oxohexanoyl)azetidin-3-yl)ethynyl)pyridin-2-yl)amino)-4-((2-methoxy-3-(1-methyl-1H-1,2,4-triazol-3-yl)phenyl)amino)-N-methylpyridazine-3-carboxamide]","B (B: <60% TYK2 degradation, and >20% TYK2 degradation)",A (A: ≥60% TYK2 degradation),
"CNC(=O)c1nnc(Nc2ccc(C#CC3CN(C(=O)CCCCCCCCC(=O)N[C@H](C(=O)N4C[C@H](O)C[C@H]4C(=O)N[C@@H](C)c4ccc(-c5scnc5C)cc4)C(C)(C)C)C3)cn2)cc1Nc1cccc(-c2ncn(C)n2)c1OC [CPD-127, 6-((5-((1-(10-(((S)-1-((2S,4R)-4-hydroxy-2-(((S)-1-(4-(4-methylthiazol-5-yl)phenyl)ethyl)carbamoyl)pyrrolidin-1-yl)-3,3-dimethyl-1-oxobutan-2-yl)amino)-10-oxodecanoyl)azetidin-3-yl)ethynyl)pyridin-2-yl)amino)-4-((2-methoxy-3-(1-methyl-1H-1,2,4-triazol-3-yl)phenyl)amino)-N-methylpyridazine-3-carboxamide]",A (A: ≥60% TYK2 degradation),A (A: ≥60% TYK2 degradation),
